The results in this text go back to US4719211A, “2,3,4,9-tetrahydro-2-heteroarylalkyl-1H-pyrido(3,4-B)indoles having antihypertensive properties” (American Home Products Corporation, priority 1986, dated 1988).

In test [1] the test system is spontaneously hypertensive rat (SHR). Briefly: Antihypertensive effect: change in systolic blood pressure in spontaneously hypertensive rats (tail plethysmography). The test is classed as in vivo. As for the experimental part: The systolic blood pressure of male conscious, spontaneously hypertensive rat (SHR) (Taconic Farms) is measured by indirect tail plethysmography using a system designed and built by Narco Bio-Systems-(Model MK-IV). Groups consisting of 4 rats receive a single oral dose of the test compound. Rats are warmed in a heated chamber at 38° C. for 10 minutes prior to measurement of systolic pressure to increase the accuracy of measurements.
The systolic pressure and heart rate data are collected in an Hewlett Packard 88 computer. Data are grouped and summarized, with the mean change in pressure and heart rate at each time period calculated.
Unless otherwise noted, the compound was tested in the form in which it was obtained in the example.

The subject of another test is rats. Briefly: Conditioned avoidance response procedure (response lever). Particulars: ip, rat, i.p.; for ED50: read-out: AB50 (dose producing 50% block in avoidance responding). It is filed as in vivo. How it is done: In conditioned avoidance response type procedures, the effect of the drug on the subject animals previously trained ability to avoid and/or escape a shock is measured. […] If the compound blocks the subject animal's ability to escape the shock, then the compound is judged to have a sedative effect.
In this procedure, rats trained previously are placed in plexiglass experimental chambers equipped with a response lever, house light, and sonalert. A steel grid floor is wired for presentation of electric shock. Each trial consists of a fifteen-second warning tone (conditioned stimulus), continuing for an additional fifteen seconds accompanied by electric shock, (unconditioned stimulus). The rat can terminate a trial at any point by depression of the response lever. A response during the initial fifteen-second warning tone ends the trial before shock delivery and is considered an avoidance response, while a response occuring during shock delivery is an escape response. Trials are presented on a variable interval schedule of two minutes. The session consists of sixty trials. Animals are run two to three times weekly with control sessions always preceding a drug run, and with at least one day intervening, compounds are administered i.p. (p.o., s.c.) at appropriate pre-treatment times to a minimum of five to six rats at each dose level over a range of doses.
The following experimental parameters are recorded by computer: (1) the number of intertrial interval responses, (2) the number of avoidance responses, (3) the number of escape responses, and (4) the number of trials in which no response occured.
Response counts are summed over all subjects at a given dose. […] This number is expressed as a percentage of the total trials. Control performance is assumed to be 100% for avoidance and escape responding and the dose calculated to produce a 50% block in avoidance responding (AB50) is obtained from a dose-effect regression line fitted by the method of least squares. […] If both AB50 's and EB20 's can be calculated, a dose ratio can be determined according to the following formula: […]

Test [2] addresses T1, limbic D-2 dopamine receptor (Rattus norvegicus, UniProt P61169).
T1 construct: Limbic brain tissue (nucleus accumbens, septal area, olfactory tubercle) is dissected and homogenized on ice; from tissue; host or cells: rat limbic brain tissue (nucleus accumbens, septal area, olfactory tubercle), washed membrane homogenate
The test can be described thus: Inhibition of limbic D-2 dopamine receptor binding (3H-spiroperidol, rat limbic brain homogenate). Particulars: 0.3 nM 3H-spiroperidol, read-out: Ki (and 95% confidence interval). How it is done:
Several rats are decapitated and the brains are rapidly removed. […] The homogenate is then diluted 4-fold with buffer and centrifuged at 30,000×g for 20 min, and the supernatant is discarded. The pellet is resuspended in the same volume of buffer and recentrifuged as before, again discarding the supernatant. This pellet is then resuspended in the same volume of buffer used in the homogenization, and the protein content of this preparation is assayed by the Lowry method. The homogenate is stored frozen at -70° C. until use.
The vials are then counted in a Packard 460CD scintillation counter.
Specific binding is defined as total binding less binding in the presence of 1 μM (+)butaclamol. Binding in the presence of various concentrations of test drug is expressed as a percent of specific binding when no drug is present. […] Linear regression analysis then yields a straight line with 95% confidence limits from which an IC50 can be inversely predicted. Ki (inhibition constant) for the test drug is then calculated by the formula: [formula]

In another test the test system is male CF-1 mice. Briefly: Antagonism of apomorphine-induced stereotyped behavior in mice. It is filed as in vivo, mouse. Particulars: apomorphine 10 mg/kg s.c. How it is done: In the second procedure, the compound's (drug's) abiltiy to antagonize apomorphine-induced stereotyped behavior in mice is measured. In the procedure, 20-25 g male CF-1 mice (Charles River) are tested one week before the experiment for a positive stereotyped response to 10 mg/kg s.c. apomorphine. Test compounds, suspended or solubilized in 0.25% Tween 80 ® in water, are administered at several dose levels to male mice (6/dose level). A control group, run simultaneously with drug groups, receives equal volumes of solvent. Thiry minutes later (i.p. administration) or 60 minutes later (p.o administration), drug-treated and control mice are challenged with 10 mg/kg apomorphine s.c. Five minutes after the injection, the rearing-head-bobbing-licking syndrome induced by apomorphine is recorded as present or absent for each animal. Readings are repeated every 5 minutes during a 30 minute test session. The number of positive or negative 5-minute intervals during which apoomorphine-induced stereotyped behavior is present or absent. ED50 values (with 95% confidence intervals) are calculated for inhibition of apomorphine-inducedstereotyped behavior, by a simple linear regression analysis with inverse prediction.

Setting [3] is: SHR, single oral dose 50 mg/kg, 1.5 hrs.
Where [4] appears, read: SHR, single oral dose 50 mg/kg, 4 hrs.
The mark [5] stands for this setting: SHR, single oral dose 10 mg/kg, 1.5 hrs.
[6] abbreviates: SHR, single oral dose 10 mg/kg, 4 hrs.

The term Ki denotes a measure of affinity in units of concentration, obtained from inhibition or displacement.

Structures can show the parent of a compound that is named as a salt.

T1 sequence (P61169 whole entry): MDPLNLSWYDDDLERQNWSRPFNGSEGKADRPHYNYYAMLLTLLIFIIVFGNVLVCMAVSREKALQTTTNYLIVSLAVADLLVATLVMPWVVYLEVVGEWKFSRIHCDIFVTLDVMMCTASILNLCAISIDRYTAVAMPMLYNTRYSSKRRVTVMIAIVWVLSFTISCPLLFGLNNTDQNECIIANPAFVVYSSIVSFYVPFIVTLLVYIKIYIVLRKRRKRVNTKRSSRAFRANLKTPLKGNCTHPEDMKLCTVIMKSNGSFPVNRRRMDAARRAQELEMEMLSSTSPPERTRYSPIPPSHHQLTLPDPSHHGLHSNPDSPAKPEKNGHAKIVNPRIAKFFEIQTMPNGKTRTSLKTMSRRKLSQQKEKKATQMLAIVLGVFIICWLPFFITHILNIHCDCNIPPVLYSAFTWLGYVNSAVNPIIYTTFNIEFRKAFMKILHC

Consider `c1ccc2c3c([nH]c2c1)CN(Cc1ccncc1)CC3` [Example 1, 2,3,4,9-Tetrahydro-2-(4-Pyridinylmethyl)-1H-Pyrido-[3,4-b]Indole, Dihydrochloride Hemihydrate], for which the figures for the “Change in Blood Pressure” value in test [1] (setting [3]) and in test [1] (setting [4]) were -27 mm of Hg and -35 mm of Hg, respectively.

As for `Cl.Cl.c1cncc(CCCN2CCc3c([nH]c4ccccc34)C2)c1` [Example 13, 2,3,4,9-Tetrahydro-2-[3-(3-Pyridinyl)propyl]1H-pyrido[3,4-b]indole, dihydrochloride], the ED50 with rats stood at 20.9 mg/kg.

For `Cl.Cl.c1ccc2nc(CN3CCc4c([nH]c5ccccc45)C3)ccc2c1` [2,3,4,9-tetrahydro-2-(2-quinolinylmethyl)-1H-pyrido[3,4-b]-indole, dihydrochloride, reference compound], the “Change in Blood Pressure” value in test [1] (50 mg/kg, time not stated, did not lower blood pressure significantly) is on record as -10 mm Hg.

Regarding `c1ccc(CCN2CCc3c([nH]c4ccccc34)C2)nc1` [Example 9, 2,3,4,9-Tetrahydro-2-[2-(2-Pyridinyl)ethyl]-1H-pyrido[3,4-b]-indole, Dihydrochloride.], in the test with rats, the ED50 is 22.6 mg/kg.

With `Cl.Cl.c1ccc2c3c([nH]c2c1)CN(CCCCc1ccncc1)CC3` [Example 4, 2,3,4,9-Tetrahydro-2-[4-(4-Pyridinyl)butyl]-1H-Pyrido[3,4-b]Indole Dihydrochloride], the “Change in Blood Pressure” value in test [1] (setting [5]) was -43 mm of Hg; in test [1] (setting [6]), -39 mm of Hg; in test [1] (setting [3]), -105 mm of Hg; in test [1] (setting [4]), -115 mm of Hg. For the same compound, the ED50 in the test with rats is 14.1 mg/kg.

For `Cl.Cl.O.c1ccc2c3c([nH]c2c1)CN(CCCCCCCc1ccncc1)CC3` [Example 3, 2,3,4,9-Tetrahydro-2-[7-(4-Pyridinyl)heptyl]-1H-Pyrido[3,4-b]Indole, Dihydrochloride Hydrate], the “Change in Blood Pressure” value is recorded as -44 mm of Hg in test [1] (setting [3]) and -58 mm of Hg in test [1] (setting [4]).

On to `Cl.Cl.c1ccc2nc(CCCCN3CCc4c([nH]c5ccccc45)C3)ccc2c1` [Example 8, 2,3,4,9-Tetrahydro-2-[4-(2-Quinolinyl)butyl]1H-Pyrido[3,4-b]Indole, Dihydrochloride], for which the ED50 in the test on rats was determined as 31 mg/kg.

As for `Cl.Cl.c1ccc2c3c([nH]c2c1)CN(CCc1cnccn1)CC3` [Example 7, 2,3,4,9-Tetrahydro-2-[2-(2Pyrazinyl)ethyl]-1H-Pyrido[3,4-b]Indole, Dihydrochloride], the “Change in Blood Pressure” value was -14 mm of Hg in test [1] (SHR, single oral dose 5 mg/kg, 1.5 hrs.); -110 mm of Hg in test [1] (setting [3]); -104 mm of Hg in test [1] (setting [4]).

Turning to `Cl.Cl.c1ccc2c(CCCCN3CCc4c([nH]c5ccccc45)C3)ccnc2c1` [Example 6, 2,3,4,9-Tetrahydro-2-[4-(4-Quinolinyl)butyl]-1H-Pyrido[3,4-b]Indole, Dihydrochloride], the “Change in Blood Pressure” value in test [1] (setting [3]) is listed as -94 mm of Hg.

As to `Cl.Cl.c1ccc2nc(CCN3CCc4c([nH]c5ccccc45)C3)ccc2c1` [Example 5, 2,3,4,9-Tetrahydro-2-[2-(2-Quinolinyl)ethyl]-1H-Pyrido[3,4-b]Indole Dihydrochloride], the entries for the “Change in Blood Pressure” value in test [1] (setting [5]), in test [1] (setting [3]) and in test [1] (setting [4]) were -25 mm of Hg, -98 mm of Hg and -84 mm of Hg, respectively. Besides, the Ki in test [2] was determined as 0.166 µM. In the test with rats (read-out: dose down to which the avoidance response is blocked in a dose dependant manner), the minimal effective dose is at most 15 mg/kg. In the test with male CF-1 mice (Mus musculus, ip, read-out: ED50 for inhibition of apomorphine-induced stereotyped behavior), the ED50 was 18 mg/kg. In addition, in the test with male CF-1 mice (i.p., Dihydrochloride), the “ED50 for inhibition of apomorphine-induced stereotyped behavior” value is reported as 20.37 mg/kg.

`Cl.Cl.c1ccc2c3c([nH]c2c1)CN(CCc1ccncc1)CC3` [Example 2, 2,3,4,9-Tetrahydro-2-[2-(4-Pyridinyl)ethyl]-1H-Pyrido[3,4-b]Indole, Dihydrochloride]: the “Change in Blood Pressure” value in test [1] (setting [5]) is recorded as -73 mm of Hg; in test [1] (setting [6]), -30 mm of Hg; in test [1] (SHR, single oral dose 25 mg/kg, 1.5 hrs.) it was -18 mm of Hg; in test [1] (SHR, single oral dose 25 mg/kg, 4 hrs.) it was -58 mm of Hg; in test [1] (setting [3]) it was -79 mm of Hg; in test [1] (setting [4]) it was -57 mm of Hg.
